Patent US20180188224A1, “METHOD FOR CONSTRUCTING A SENSORY SPACE” (CENTRE SCIENTIFIQUE ET TECHNIQUE DU BATIMENT (CSTB), priority 2015, published 2018)
Several values for one entry are separate records, joined by “and”; a condition that tells them apart may be missing. Equal values may be shown once.

Columns and labels:
subject 3 = assay: Skin blood microcirculation (SKBF) response to taste stimuli, PCA sensory space (ESRP); format: in vivo, human; settings: concentration 3
Source text: A Periflux PF 5010 (Perimed AB, Sweden) system was chosen, which enables non-invasive monitoring of blood perfusion in the capillaries, arterioles and venules.
The unit of blood perfusion is arbitrary and corresponds to the product of the mean rate of displacement of the red blood cells by their concentration. The system Periflux PF 5010 has a 780 nm, 1 mm diameter laser beam without thermal effect. An optical fiber probe PR407 is used. The low-energy laser beam is transmitted by the probe to the tissue. A portion of the light reflects off the static structures and another portion of the light reflects off the moving blood cells. When the light reflects off a moving cell, the wavelength is modified, which corresponds to the Doppler effect. The scattered light collected by the optical fiber is used to calculate the perfusion value. The measurement is expressed in perfusion units (PU). Recording was carried out on the pad of the index finger of the non-dominant hand, due to the high level of vascularization of this zone. The perfusion signals were recorded by an 8-channel PowerLab PL35088/35 acquisition system; the data were collected at a frequency of 1 kHz and analyzed by the LabChart® software (AD instruments Ltd, United Kingdom).
. Then, the peak was analyzed manually by selecting the whole of the peak and analyzing it with the LabChart® software (FIG. 1).
Several shape parameters were extracted from the signal (i.e. amplitude, duration, gradient). […]
The SKBF responses were analyzed individually by one-way ANOVA (product effect), the subjects having their own “preferential channel” (Lacey, J. I., Bateman, D. E. & VanLEHN, R., 1953, Autonomic response specificity: An experimental study. Psychosomatic Medicine, 15, 8-21). […]

[1] = representative compound of a primary taste; cited from earlier work
[2] = tested on: four non-smoking volunteers (2 men and 2 women); assay: Taste identification questionnaire, trained panel (count of 6 repetitions per subject in which the stimulus was given each taste label; level of recognition %); format: in vivo, human; settings: human, in vivo
Procedure: (§1) In this test, four non-smoking volunteers (2 men and 2 women) were chosen from 12 people for their performance in taste recognition. Their mean age was 32 years, ranging from 24 to 40 years. […] These four people were trained for several months to recognize and detect the four basic tastes, and also regarding the procedures of sensory and physiological analysis.
(§2) The four basic tastes (sweet, salty, sour and bitter) were used. The solutions were prepared with citric acid for the sour taste, caffeine for the bitter taste, sodium chloride for the salty taste and sucrose for the sweet taste (all purchased from Sigma Aldrich, France) in Evian water. Evian water was also used as control and blank. Each taste was prepared with the four concentrations mentioned in table 1.
(§3) The amount of solution to be tested was standardized at 10 ml. In order to impregnate the whole of the oral cavity, the subjects kept the solution in their mouth for 5 s before swallowing it.
(§4) The sessions were individual and the subjects were asked not to eat or drink anything for at least 1 h before the test. They arrived 15 min before the start of the session in order to acclimatize to the environmental conditions, in particular the temperature of the room (kept constant at 23° C.) and to be resting seated on a comfortable chair. The 16 solutions for testing and two additional samples of water containing solely Evian water, added to the references, were presented monadically following a test order determined from a “balanced incomplete block design”. During a session, 9 samples out of 18 were presented to minimize sensory fatigue. In addition, a sample of Evian was always tested as a “blank” sample in order to avoid the first-order effect (Lawless, H. T. & Heymann, H., 2010, Sensory evaluation of food: Principles and practices. Springer, New York) and was excluded from the analysis. A light signal was sent to give the instruction to test the sample. When the disturbance to the nervous system returned to its baseline level (after approximately 1 min), a second light signal indicated to the subjects that they should complete a questionnaire regarding the stimulus tested previously. The first part of the questionnaire was linked to the identification of the taste (i.e. determining the quality of the taste); the subjects had to choose between five labels: sweet, salty, sour, bitter or neutral. They then had to assign a taste intensity score on an 11-point scale (from 0 “not intense” (i.e. taste of Evian only) to 10 “very intense”) and finally to give a hedonic score on an 11-point scale (from 0 “very unpleasant” to 10 “very pleasant”, 5 being “neutral”).
(§5) This procedure was repeated for each of the 9 stimuli. A session lasted approximately 45 min including a debriefing at the end of the test to ensure understanding of the sense of the signal variations. The experiment was repeated 12 times per subject, meaning that the data are composed of 6 data sets per subject and per product and 12 data sets for the Evian product per subject. Thus, the database consists of 432 samples.

[3] = tested on: four non-smoking volunteers (2 men and 2 women); assay: Hedonic score, 11-point scale (0 very unpleasant to 10 very pleasant, 5 neutral); format: in vivo, human
Procedure: as §1, §2, §3, §4, §5
The effect of the taste on the hedonic and intensity scores was analyzed by an analysis of variance (ANOVA) including the product effect, the subject effect and the product-subject interaction. The subject effect was fixed because there were only 4 subjects and the results could only be applied to a particular schema. The differences were considered to be significant at a level of 0.05.

Cn1c(=O)c2c(ncn2C)n(C)c1=O [Caffeine, caffeine]
SKBF disturbance (signal width, area of the peak; ANOVA) (subject 3): significantly stronger disturbance than the others | detection threshold [1]: 0.05 to 0.35 g/L | Individual recognition score: Bitter [2]: 6 (9×) and 4 (2×) and 5 (4×) and 3 | Individual recognition score: Neutral [2]: 0 (11×) and 1 (3×) and 3 and 2 | Individual recognition score: Salty [2]: 0 | Individual recognition score: Sour [2]: 0 (14×) and 1 (2×) | Individual recognition score: Sweet [2]: 0 (15×) and 1 | Level of Recognition %: Bitter [2]: 83% and 84% | Level of Recognition %: Salty [2]: 0% | Level of Recognition %: Sour [2]: 0% and 4% | Level of Recognition %: Sweet [2]: 0% and 4% | hedonic score ([3]; concentration 3): 3.5±1.8 | hedonic score ([3]; concentration 4 (highest)): 3.5±2.3
